Measured values reported in article PMC11786751, “An SH3-binding allosteric modulator stabilizes the global conformation of the AML-associated Src-family kinase, Hck” (The Journal of Biological Chemistry, 2024).

Key:
Hck [1] = biological target: T1, Hck (Homo sapiens, UniProt P08631); test: 1H-15N HSQC NMR titration; also SPR (KD […], near-full-length) and HDX-MS; format: binding
T1 construct: SH3 domain (p59 Hck amino acids 80–144); also SH3-SH2-linker (84–261) and near-full-length Hck (84–524)
T1 sequence (P08631 75-139): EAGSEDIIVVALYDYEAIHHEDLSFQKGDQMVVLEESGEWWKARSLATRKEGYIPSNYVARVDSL

Src = biological target: T2, Src (Homo sapiens, UniProt P12931); test: SPR; format: binding
T2 construct: near-full-length (SH3-SH2-kinase-tail)
T2 sequence (P12931 2-536): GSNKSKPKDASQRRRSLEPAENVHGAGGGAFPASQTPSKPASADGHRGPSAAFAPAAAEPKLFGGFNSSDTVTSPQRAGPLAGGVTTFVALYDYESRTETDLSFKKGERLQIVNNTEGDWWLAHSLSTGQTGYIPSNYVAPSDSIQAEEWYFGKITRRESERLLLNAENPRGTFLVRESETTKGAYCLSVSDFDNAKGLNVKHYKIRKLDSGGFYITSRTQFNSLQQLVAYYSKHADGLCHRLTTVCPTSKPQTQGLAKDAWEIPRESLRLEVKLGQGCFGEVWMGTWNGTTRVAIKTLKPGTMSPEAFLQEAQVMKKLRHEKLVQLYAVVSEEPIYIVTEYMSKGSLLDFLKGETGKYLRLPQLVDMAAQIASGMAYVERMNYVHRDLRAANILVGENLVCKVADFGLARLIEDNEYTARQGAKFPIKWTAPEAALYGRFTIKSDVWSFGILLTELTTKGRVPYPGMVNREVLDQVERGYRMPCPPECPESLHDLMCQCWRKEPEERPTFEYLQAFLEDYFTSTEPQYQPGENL

Hck [2] = biological target: T3, Hck (Homo sapiens, UniProt P08631, H284A/T285A/Q523E/Q524E/Q525I); test: kinetic kinase assay (ADP Quest), activation of the mutant kinase; format: biochemical
T3 construct: near-full-length Hck (p59 amino acids 84–524, modified tail YEEIP)
T3 sequence (P08631 79-526 H284A/T285A/Q523E/Q524E/Q525I): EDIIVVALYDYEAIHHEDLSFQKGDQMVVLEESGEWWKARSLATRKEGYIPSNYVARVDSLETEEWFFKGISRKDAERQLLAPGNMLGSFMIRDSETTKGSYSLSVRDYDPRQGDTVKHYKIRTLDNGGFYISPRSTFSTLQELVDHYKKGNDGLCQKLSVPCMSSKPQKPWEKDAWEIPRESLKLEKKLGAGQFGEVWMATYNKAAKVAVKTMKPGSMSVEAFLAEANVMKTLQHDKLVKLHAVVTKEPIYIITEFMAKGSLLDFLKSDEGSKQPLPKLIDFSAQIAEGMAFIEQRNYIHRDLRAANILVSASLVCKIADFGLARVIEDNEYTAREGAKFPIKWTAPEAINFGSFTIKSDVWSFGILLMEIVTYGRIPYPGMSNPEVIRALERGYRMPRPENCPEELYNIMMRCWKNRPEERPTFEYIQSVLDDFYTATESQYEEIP

Lyn = biological target: T4, Lyn (Homo sapiens, UniProt P07948); test: SPR; format: binding
T4 construct: near-full-length (SH3-SH2-kinase-tail)
T4 sequence (P07948 2-512): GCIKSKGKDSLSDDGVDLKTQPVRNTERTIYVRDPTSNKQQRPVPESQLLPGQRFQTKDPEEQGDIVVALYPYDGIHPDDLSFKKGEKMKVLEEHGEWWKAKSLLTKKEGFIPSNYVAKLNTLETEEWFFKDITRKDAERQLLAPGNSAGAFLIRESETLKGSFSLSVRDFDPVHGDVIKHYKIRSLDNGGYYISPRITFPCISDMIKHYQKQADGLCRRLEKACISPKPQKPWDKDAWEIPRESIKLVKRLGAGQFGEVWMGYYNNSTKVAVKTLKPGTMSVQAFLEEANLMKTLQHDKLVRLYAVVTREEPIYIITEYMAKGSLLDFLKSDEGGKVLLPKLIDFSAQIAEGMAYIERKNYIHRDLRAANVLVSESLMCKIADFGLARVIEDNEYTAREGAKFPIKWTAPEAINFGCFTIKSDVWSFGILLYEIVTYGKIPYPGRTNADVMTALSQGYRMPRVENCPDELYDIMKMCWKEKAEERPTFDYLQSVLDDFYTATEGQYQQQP

Hck [3] = biological target: T1, Hck; test: 1H-15N HSQC NMR titration; also SPR (KD […], near-full-length), HDX-MS and kinase activation; format: binding

For `CC(C)Nc1ccnc(NCc2cccnc2Oc2ccc(F)cc2)n1` [PDA1], the Kd (Hck [1]) was 42.6 ± 4.7 µM, the Kd (Src) was 55 ± 2.18 µM and the “kinetic kinase assay (ADP Quest), activation of the mutant kinase” value (Hck [2]) was “Both PDA1 and PDA2 activated Hck-HTA (Fig. 7B), unlike WT Hck, which is only activated by PDA2”. It also gave a Kd (Lyn) of 74.9 ± 19.9 µM.

For `Cc1cnc(NCc2ccccc2-n2ccnc2)nc1N(C)C` [PDA2], the Kd (Src) was 236 ± 18.1 µM, the Kd (Hck [3]) was 65.1 ± 3.1 µM and the Kd (Lyn) was 180 ± 33.7 µM.
